We go through ten compounds from patent US9284312B2, “N-methyl tetrahydroquinoline M1 receptor positive allosteric modulators” (Merck Sharp & Dohme Corp., priority 2011, dated 2016).

One assay concerns the target T1, acetylcholine muscarinic M1 receptor (Homo sapiens, UniProt P11229).
T1 construct: expressed in transfected cells; host or cells: CHOnfat (CHO cells, Geneticin-selected) expressing hM1
T1 sequence (P11229 1-460): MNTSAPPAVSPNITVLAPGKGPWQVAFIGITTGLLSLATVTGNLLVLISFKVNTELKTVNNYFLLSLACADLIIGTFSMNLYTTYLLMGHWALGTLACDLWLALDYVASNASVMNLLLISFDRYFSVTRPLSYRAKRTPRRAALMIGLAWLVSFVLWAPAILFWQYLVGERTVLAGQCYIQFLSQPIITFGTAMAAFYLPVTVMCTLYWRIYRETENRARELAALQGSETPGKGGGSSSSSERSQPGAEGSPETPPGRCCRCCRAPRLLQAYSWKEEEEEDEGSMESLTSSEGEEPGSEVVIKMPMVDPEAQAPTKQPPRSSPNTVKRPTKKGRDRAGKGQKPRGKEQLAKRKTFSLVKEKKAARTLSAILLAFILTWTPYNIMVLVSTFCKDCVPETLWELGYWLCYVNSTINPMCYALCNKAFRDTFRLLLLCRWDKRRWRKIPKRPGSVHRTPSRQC
Nature of the assay: muscarinic FLIPR assay: intracellular calcium in CHOnfat/hM1 cells with EC20 acetylcholine (positive allosteric modulation). The assay is classed as cell-based.
Details: not given
The protocol: The assay studies the effect of one or several concentrations of test compounds on basal or acetylcholine-stimulated Ca^2+ levels using FLIPR.
Compounds are prepared and subjected to a preincubation period of 4 min. Thereafter, a single EC20 concentration of acetylcholine is added to each well (3 nM final). The intracellular Ca^2+ level of each sample is measured and compared to an acetylcholine control to determine any modulatory activity.
Cells: CHOnfat/hM1, hM2, hM3 or hM4 cells are plated 24 hr before the assay at a density of 18,000 cells/well (100 μL) in a 384 well plate. CHOnfat/hM1 and CHOnfat/hM3 Growth Medium: 90% DMEM (Hi Glucose); 10% HI FBS; 2 mM L-glutamine; 0.1 mM NEAA; Pen-Strep; and 1 mg/ml Geneticin, are added. For M2Gqi5CHOnfat and M4Gqi5CHOnfat cells, an additional 600 ug/ml hygromycin is added.
Equipment: 384 well plate, 120 μL addition plate; 96-well Whatman 2 ml Uniplate Incubator, 37° C., 5% CO2; Skatron EMBLA-384 Plate Washer; Multimek Pipetting System; Genesis Freedom 200 System; Mosquito System; Temo Nanoliter Pipetting System; and FLIPR^384 Fluorometric Imaging Plate Reader System are used.
Buffers. Assay Buffer: Hanks Balanced Salt Solution, with 20 mM Hepes, 2.5 mM Probenecid (Sigma P-8761) first dissolved in 1 N NaOH, 1% Bovine Serum Albumin (Sigma A-9647). Dye Loading Buffer: Assay Buffer plus 1% Fetal Bovine Serum and Fluo-4AM/Pluronic Acid Mixture. 2 mM Fluo-4AM ester stock in DMSO (Molecular Probes F-14202) Concentration of 2 μM in buffer for a final concentration of […] in Assay. 20% Pluronic Acid Solution stock, with concentration of 0.04% in Buffer, 0.02% in Assay.
65 μL of 2 mM Fluo-4AM are mixed with 130 μL of 20% Pluronic Acid. The resulting solution and 650 μL FBS is added to the assay buffer for a total volume of 65 mL. Positive Controls: 4-Br-A23187: 10 mM in DMSO; final concentration 10 μM. Acetylcholine: 10 mM in water, working stock at both 20 μM and 30 μM in assay buffer, final concentration of 10 μM. This is used to check the maximum stimulation of the CHOK1/hM1 cells. 20 μM (2×) acetylcholine is added in the preincubation part of the assay, and the 30 μM (3×) stock is added in the second part. (EC20)Acetylcholine: 10 mM in water, working stock of 9 nM (3×), and final concentration in assay is 3 nM. This is used after the preincubation with test compounds. Addition of the EC20 Acetylcholine to each well with a test compound will ascertain any modulator activity. 24 wells contain 3 nM Acetylcholine alone as a control.
Determining Activity of Putative Compounds:
Screening Plate: Compounds are titrated in 96-well plates (columns 2-11), 100% DMSO, started at a concentration of 15 mM (150× stock concentration), and 3-fold serial dilutions using Genesis Freedom200 System. Four 96-well plates are combined into a 384-well plate using Mosquito Nanoliter Pipetting System by transferring 1 μl of serial diluted compounds to each well, and 1 mM acetylcholine (100× stock concentration) were added as a control. Using Temo, 49 μl assay buffer is added to each well of the 384-well plate right before assay.
In a 96-well Whatman 2 ml Uniplate, 9 nM Acetylcholine (3×) is pipetted into wells corresponding to the screening compounds, and into control wells. The 30 μM acetylcholine control (3×) is added into control wells, and the 3× agonist plate is transferred into a 384 well plate.
Cells are washed three times with 100 μL of buffer, leaving 30 μL of buffer in each well. Using Multimek, 30 μL of Dye Loading Buffer is added into each well and incubated at 37° C., 5% CO2 for up to one hr.
After 60 min, the cells are washed three times with 100 μL of buffer, leaving 30 μL of buffer in each well. The cell plate, screening plate, and agonist addition plates are placed on the platform in the FLIPR and the door closed. A signal test to check background fluorescence and basal fluorescence signal is performed. Laser intensity is adjusted if necessary. […]
On the technique in general: Calcium assays in cells follow changes in intracellular calcium, usually with a dye or a luminescent sensor.
For the compound `CN(C)C(=O)Oc1ccc(Cc2cc3c(=O)n([C@H]4CCCC[C@@H]4O)cnc3c3c2C=CCN3C)cc1` [Example 8, 4-({3-[(1S,2S)-2-Hydroxycyclohexyl]-10-methyl-4-oxo-3,4,9,10-tetrahydropyrido[3,2-h]quinazolin-6-yl}methyl)phenyl dimethylcarbamate], the EC50 was 25 nM.

Staying with this assay, now noted: CHOnfat/hM1 cells, FLIPR Ca2+, 4 min preincubation, then EC20 acetylcholine (3 nM final); read-out: IP Value (inflection point).
Turning to `CSc1ccc(Cc2cc3c(=O)n([C@H]4CCCC[C@@H]4O)cnc3c3c2C=CCN3C)cn1` [Example 3, 3-[(1S,2S)-2-Hydroxycyclohexyl]-10-methyl-6-{[-(methylthio)-pyridin-3-yl]methyl}-9,10-dihydropyrido[3,2-h]quinazolin-4(3H)-one], the EC50 is 4.2 nM. On the same count and under the same terms, to `CN1CC=Cc2c(Cc3ccc(-c4cnn(C)c4)nc3)cc3c(=O)n([C@H]4CCCC[C@@H]4O)cnc3c21` [Example 6, 3-[(1S,2S)-2-Hydroxycyclohexyl]-10-methyl-6-{[6-(1-methyl-1H-pyrazol-4-yl)pyridin-3-yl]methyl}-9,10-dihydropyrido[3,2-h]quinazolin-4(3H)-one] belongs 2.6 nM; to `CN1CC=Cc2c(Cc3ccc(Cl)nc3)cc3c(=O)n([C@H]4CCOC[C@@H]4O)cnc3c21` [Example 2, 6-[(6-Chloropyridin-3-yl)methyl]-3-[(3R,4S)-3-hydroxytetrahydro-2H-pyran-4-yl]-10-methyl-9,10-dihydropyrido[3,2-h]quinazolin-4(3H)-one], 4.3 nM.

Turning to `CN1CC=Cc2c(Cc3ccc(Cl)nc3)cc3c(=O)n([C@H]4CCCC[C@@H]4O)cnc3c21` [Example 1, 6-[(6-Chloropyridin-3-yl)methyl]-3-[(1S,2S)-2-hydroxycyclohexyl]-10-methyl-9,10-dihydropyrido[3,2-h]quinazolin-4(3H)-one], the EC50 came out at 3 nM. Still for that read-out and setting: the same measure for `COc1cc(Cc2cc3c(=O)n([C@H]4CCCC[C@@H]4O)cnc3c3c2C=CCN3C)ccn1` [Example 9, 3-[(1S,2S)-2-Hydroxycyclohexyl]-6-[(2-methoxypyridin-4-yl)methyl]-10-methyl-9,10-dihydropyrido[3,2-h]quinazolin-4(3H)-one]: 5.2 nM. On the same count and under the same terms, the same measure for `CN1CC=Cc2c(Cc3cccnc3)cc3c(=O)n([C@H]4CCCC[C@@H]4O)cnc3c21` [Example 5, 3-[(1S,2S)-2-Hydroxycyclohexyl]-10-methyl-6-(pyridine-3-ylmethyl)-9,10-dihydropyrido[3,2-h]quinazolin-4(3H)-one]: 21 nM; for `COc1ccc(Cc2cc3c(=O)n([C@H]4CCCC[C@@H]4O)cnc3c3c2C=CCN3C)cn1` [Example 4, 3-[(1S,2S)-2-Hydroxycyclohexyl]-6-[(6-methoxypyridin-3-yl)methyl]-10-methyl-9,10-dihydropyrido[3,2-h]quinazolin-4(3H)-one]: 14 nM; for `CN1CC=Cc2c(Cc3ccc(O)cc3)cc3c(=O)n([C@H]4CCCC[C@@H]4O)cnc3c21` [Example 7, 6-(4-Hydroxybenzyl)-3-[(1S,2S)-2-hydroxycyclohexyl]-10-methyl-9,10-dihydropyrido[3,2-h]quinazolin-4(3H)-one]: 2.6 nM.

The assay is the same for the next values; noted with them: column head 'H Pot.' of the untitled table after Table 1; no unit or method printed; read-out: H Pot.
On to `CCN1CC=Cc2c(Cc3ccc(Cl)nc3)cc3c(=O)n([C@H]4CCCC[C@@H]4O)cnc3c21` [Example 46], for which the EC50 is 263 nM.
